Assay results published in publication PMC10178127, “Immunomodulatory Effects of the Pea Defensin Psd1 in the Caco-2/Immune Cells Co-Culture upon Candida albicans Infection” (International Journal of Molecular Sciences, 2023).

Tested on: Caco-2/monocytes co-culture
Assay: Multiplex xMAP cytokine production, Caco-2/monocytes co-culture
Assay type: cell-based, human
Conditions: 24 h; for EGF level / Eotaxin level / FGF-2 level / FLT-3L level / Fractalkine level / G-CSF level / GM-CSF level / GROa level / IFNa2 level / IFNg level / IL-1RA level / IL-1a level / IL-1b level / IL-2 level / IL-3 level / IL-4 level / IL-5 level / IL-6 level / IL-7 level / IL-8 level / IL-9 level / IL-10 level / IL-12 (p40) level / IL-12 (p70) level / IL-13 level / IL-15 level / IL-17A level / IL-17E/IL-25 level / IL-17F level / IL-18 level / IL-22 level / IL-27 level / IP-10 level / M-GSF level / MCP-1 level / MCP-3 level / MDC level / MIG level / MIP-1a level / MIP-1b level / PDGF-AA level / PDGF-AB/BB level / RANTES level / TGF-a level / TNFa level / TNFb level / VEGFa level / sCD40L level: 2 µM apical, basolateral medium
Excerpt: The co-culture model consisted of immune cells (moDCs or monocytes) lying on the bottom of the culture well, and a Caco-2 polarized monolayer, mimicking intestinal epithelium, on a permeable insert. Immune cells were located on the serosal side of the epithelial barrier. In some inserts Candida albicans was loaded to the apical side of the epithelium, mimicking intestinal lumen colonization with this pathogenic fungus. This co-culture model allows yeast cells to contact only with the apical side of epithelial cells, but not with immune cells. Culture medium, containing cytokines, chemokines, and growth factors, produced by both epithelial and immune cells, was taken from basolateral chambers and analyzed by multiplex xMAP technology after incubation during 24 h when C. albicans cells switched to hyphal form.
For growing cells, mimicking epithelial barriers in vitro, Caco-2 cells were seeded onto 24-well polycarbonate Millicell cell culture inserts (0.4 μm, 0.6 cm^2 surface area) (Millipore, Burlington, MA, USA), precoated with 0.2% bovine gelatin (Sigma-Aldrich), at a density of 2.5 × 10^5 cells/cm^2. The cells were grown for 21 days in a complete DMEM/F12 (1:1) medium with re-feeding every 2–3 days with a fresh complete medium. The integrity of the Caco-2 cell monolayer was checked by measuring the transepithelial electrical resistance (TEER) using a Millicell-ERS Voltohmmeter (Millipore). Only cell monolayers with TEER > 400 Ωcm^2 (after subtracting TEER in blank inserts without Caco-2 cells) were used in transport across epithelial monolayer and cytokine production experiments.
Monocytes and moDCs were seeded into the wells of 48- and 24-well plates in the complete RPMI-1640 medium supplemented with 10% human AB serum (HABS, Capricorn Scientific) without antibiotics 24 h prior to the experiment, and kept in a humidified CO2-incubator (5% CO2, 37 °C). After 24 h, the medium in the wells of the 48-well plate was replaced by fresh complete RPMI-1640 medium with 10% HABS, supplemented with 2 µM of Psd1 for the sample wells or fresh medium alone for the control wells. Medium in the wells of the 24-well plate was replaced by fresh complete RPMI-1640 medium with 10% human serum without antibiotics. Then, Millicell inserts with Caco-2 monolayers with TEER > 400 Ωcm^2 were placed into the wells of the 24-well plate, containing monocytes or moDCs. Wells with Millicell inserts with Caco-2 monolayers without immune cells were used as control wells. Medium in apical chambers of Millicell inserts was replaced by fresh complete RPMI-1640 with 10% human serum medium containing Psd1 at the final concentration of 2 µM or Candida albicans at the concentration of 5 × 10^4 cells/mL or yeast cells together with the pea defensin at the same concentration. Fresh complete RPMI-1640 medium only with 10% human serum and without antibiotics was used in control wells. Plates were kept in CO2-incubator (5% CO2, 37 °C) for another 24 h. Culture supernatants from the wells of the 48-well plate and basolateral chambers of the 24-well plate were collected and stored at −70 °C degrees less than one month prior to the analytes assessment. […]

[1] = Caco-2/monocytes co-culture with C. albicans, 2 μM

“Psd1: pea defensin from Pisum sativum (UNIPROT P81929), recombinant peptide overexpressed in Escherichia coli (KTCEHLADTYRGVCFTNASCDDHCKNKAHLISGTCHNWKCFCTQNC; UniProt P81929 1-46, looked up)” was tested, and the EGF level (Caco-2/Mono+Candida+Psd1) was 7 pg/mL, the Eotaxin level (Caco-2/Mono+Candida+Psd1) was 4.44 pg/mL and the FGF-2 level (Caco-2/Mono+Candida+Psd1) was 47.02 pg/mL. For the same substance, the FLT-3L level (Caco-2/Mono+Candida+Psd1) was 0.83 pg/mL, the Fractalkine level (Caco-2/Mono+Candida+Psd1) was 27.26 pg/mL and the G-CSF level (Caco-2/Mono+Candida+Psd1) was 63.23 pg/mL. The GM-CSF level (Caco-2/Mono+Candida+Psd1) was 2.65 pg/mL, the GROa level (Caco-2/Mono+Candida+Psd1) was 1596 pg/mL and the IFNa2 level (Caco-2/Mono+Candida+Psd1) was 15.36 pg/mL. The IFNg level (Caco-2/Mono+Candida+Psd1) was <2.23↓ pg/ml, the IL-1RA level (Caco-2/Mono+Candida+Psd1) was 7.97 pg/mL and the IL-1a level (Caco-2/Mono+Candida+Psd1) was 29.04 pg/mL. The IL-1b level (Caco-2/Mono+Candida+Psd1) was 26.83 pg/mL, the IL-2 level (Caco-2/Mono+Candida+Psd1) was <0.95↓ pg/ml and the IL-3 level (Caco-2/Mono+Candida+Psd1) was <0.60↓ pg/ml. For the same substance, the IL-4 level (Caco-2/Mono+Candida+Psd1) was 3.07 pg/mL, the IL-5 level (Caco-2/Mono+Candida+Psd1) was <0.30↓ pg/ml and the IL-6 level (Caco-2/Mono+Candida+Psd1) was 631.32 pg/mL. The IL-7 level (Caco-2/Mono+Candida+Psd1) was <0.38↓ pg/ml, the IL-8 level (Caco-2/Mono+Candida+Psd1) was 8138 pg/mL and the IL-9 level (Caco-2/Mono+Candida+Psd1) was 6.07 pg/mL. The IL-10 level (Caco-2/Mono+Candida+Psd1) was 4.47 pg/mL, the “IL-12 (p40) level” value (Caco-2/Mono+Candida+Psd1) was 25.99 pg/mL and the “IL-12 (p70) level” value (Caco-2/Mono+Candida+Psd1) was <1.68↓ pg/ml. For the same substance, the IL-13 level (Caco-2/Mono+Candida+Psd1) was 25.38 pg/mL, the IL-15 level (Caco-2/Mono+Candida+Psd1) was 1.44 pg/mL and the IL-17A level (Caco-2/Mono+Candida+Psd1) was 2.9 pg/mL. The IL-17E/IL-25 level (Caco-2/Mono+Candida+Psd1) was <18.85↓ pg/ml, the IL-17F level (Caco-2/Mono+Candida+Psd1) was <19.03↓ pg/ml and the IL-18 level (Caco-2/Mono+Candida+Psd1) was 3.62 pg/mL. For the same substance, the IL-22 level (Caco-2/Mono+Candida+Psd1) was 24.13 pg/mL, the IL-27 level (Caco-2/Mono+Candida+Psd1) was 63.98 pg/mL and the IP-10 level (Caco-2/Mono+Candida+Psd1) was 35.99 pg/mL. For the same substance, the M-GSF level (Caco-2/Mono+Candida+Psd1) was 34.31 pg/mL, the MCP-1 level (Caco-2/Mono+Candida+Psd1) was 9510 pg/mL and the MCP-3 level (Caco-2/Mono+Candida+Psd1) was 273.49 pg/mL. The MDC level (Caco-2/Mono+Candida+Psd1) was 1060 pg/mL, the MIG level (Caco-2/Mono+Candida+Psd1) was 50.41 pg/mL and the MIP-1a level (Caco-2/Mono+Candida+Psd1) was 22.02 pg/mL. It also gave an MIP-1b level (Caco-2/Mono+Candida+Psd1) of 53.4 pg/mL, a PDGF-AA level (Caco-2/Mono+Candida+Psd1) of 341.69 pg/mL and a PDGF-AB/BB level (Caco-2/Mono+Candida+Psd1) of 805.91 pg/mL. The RANTES level (Caco-2/Mono+Candida+Psd1) was 78.92 pg/mL, the TGF-a level (Caco-2/Mono+Candida+Psd1) was 2.79 pg/mL and the TNFa level (Caco-2/Mono+Candida+Psd1) was 33.8 pg/mL. It also gave a TNFb level (Caco-2/Mono+Candida+Psd1) of 11.12 pg/mL, a VEGFa level (Caco-2/Mono+Candida+Psd1) of 523.74 pg/mL and a sCD40L level (Caco-2/Mono+Candida+Psd1) of 89.41 pg/mL. It also gave an EGF level (Caco-2/Mono+Psd1) of 9.18 pg/mL, an Eotaxin level (Caco-2/Mono+Psd1) of 4.17 pg/mL and an FGF-2 level (Caco-2/Mono+Psd1) of 43.83 pg/mL. For the same substance, the FLT-3L level (Caco-2/Mono+Psd1) was 1.29 pg/mL, the Fractalkine level (Caco-2/Mono+Psd1) was 29.68 pg/mL and the G-CSF level (Caco-2/Mono+Psd1) was 80.21 pg/mL. For the same substance, the GM-CSF level (Caco-2/Mono+Psd1) was 4.74 pg/mL, the GROa level (Caco-2/Mono+Psd1) was 1849 pg/mL and the IFNa2 level (Caco-2/Mono+Psd1) was 18.56 pg/mL. The IFNg level (Caco-2/Mono+Psd1) was <2.23↓ pg/ml, the IL-1RA level (Caco-2/Mono+Psd1) was 10.99 pg/mL and the IL-1a level (Caco-2/Mono+Psd1) was 137.08 pg/mL. The IL-1b level (Caco-2/Mono+Psd1) was 62.38 pg/mL, the IL-2 level (Caco-2/Mono+Psd1) was 3.01 pg/mL and the IL-3 level (Caco-2/Mono+Psd1) was <0.60↓ pg/ml. For the same substance, the IL-4 level (Caco-2/Mono+Psd1) was 2.67 pg/mL, the IL-5 level (Caco-2/Mono+Psd1) was <0.30↓ pg/ml and the IL-6 level (Caco-2/Mono+Psd1) was 830.31 pg/mL. The IL-7 level (Caco-2/Mono+Psd1) was <0.38↓ pg/ml, the IL-8 level (Caco-2/Mono+Psd1) was 7130 pg/mL and the IL-9 level (Caco-2/Mono+Psd1) was 6.07 pg/mL. The IL-10 level (Caco-2/Mono+Psd1) was 8.82 pg/mL, the “IL-12 (p40) level” value (Caco-2/Mono+Psd1) was 40.75 pg/mL and the “IL-12 (p70) level” value (Caco-2/Mono+Psd1) was 2.06 pg/mL. For the same substance, the IL-13 level (Caco-2/Mono+Psd1) was 23.46 pg/mL, the IL-15 level (Caco-2/Mono+Psd1) was 2.33 pg/mL and the IL-17A level (Caco-2/Mono+Psd1) was 3.99 pg/mL. The IL-17E/IL-25 level (Caco-2/Mono+Psd1) was <18.85↓ pg/ml, the IL-17F level (Caco-2/Mono+Psd1) was <19.03↓ pg/ml and the IL-18 level (Caco-2/Mono+Psd1) was 5.64 pg/mL. For the same substance, the IL-22 level (Caco-2/Mono+Psd1) was 18.63 pg/mL, the IL-27 level (Caco-2/Mono+Psd1) was 76.02 pg/mL and the IP-10 level (Caco-2/Mono+Psd1) was 70.11 pg/mL. The M-GSF level (Caco-2/Mono+Psd1) was 34.31 pg/mL, the MCP-1 level (Caco-2/Mono+Psd1) was 9656 pg/mL and the MCP-3 level (Caco-2/Mono+Psd1) was 354.38 pg/mL. The MDC level (Caco-2/Mono+Psd1) was 1230 pg/mL, the MIG level (Caco-2/Mono+Psd1) was 129.1 pg/mL and the MIP-1a level (Caco-2/Mono+Psd1) was 26.21 pg/mL. The MIP-1b level (Caco-2/Mono+Psd1) was 45.94 pg/mL, the PDGF-AA level (Caco-2/Mono+Psd1) was 357.15 pg/mL and the PDGF-AB/BB level (Caco-2/Mono+Psd1) was 985.45 pg/mL. The RANTES level (Caco-2/Mono+Psd1) was 123.08 pg/mL, the TGF-a level (Caco-2/Mono+Psd1) was 4.39 pg/mL and the TNFa level (Caco-2/Mono+Psd1) was 44.58 pg/mL. It also gave a TNFb level (Caco-2/Mono+Psd1) of 10.19 pg/mL, a VEGFa level (Caco-2/Mono+Psd1) of 384.49 pg/mL and a sCD40L level (Caco-2/Mono+Psd1) of 94.06 pg/mL. The “production of IL-4” value [1] was “increased the production”, the “production of IL-8/CXCL8, IL-12, TNFα, G-CSF, and GM-CSF” value [1] was “decreased inhibiting action of pathogenic fungus” and the “production of IL-22” value [1] was “statistically significantly (p < 0.05) increased”. The “production of MIG/CXCL9” value [1] was “decreased the production” and the “production of IL-2, IL-10, MDC and IL-17” value (Caco-2/monocytes co-culture, 2 μM apical, no Candida) was “statistically significant increase”.
